Source: US20170016062A1, “SEQUENCING METHODS AND KITS” (NEW YORK UNIVERSITY, priority 2015, published 2017)

What was measured:
[1] = test system: MG1655 E. coli (rpoB and mrcA regions of interest); test: Maximum-Depth Sequencing (MDS) of mutation rates in E. coli grown with sub-inhibitory antibiotic doses; format: cell-based, Escherichia coli; conditions: for rate of transition mutations in rpoB: wild-type MG1655, aerobic, 1 μL/mL ampicillin or 15 ng/mL norfloxacin
Procedure: E. coli were streaked onto Luria-Bertani (LB) Agar from freezer stocks and grown at 30° C. for 24 hours. According to plating and colony-forming unit (CFU) counting, the average number of cells in such colonies is 3×10^8 (thus the number of generations is […]. Bacteria from a single colony were used to inoculate a small liquid culture (1 ml LB broth in a round-bottom tube). For the purposes of generation counting, it is assumed that after the transition to growing in liquid, growth occurs for only ˜3 generations, since the number of bacteria in the colony is roughly equal to the carrying capacity of the broth. The culture was grown for 12 hours on a 37° C. shaker.
4 μL (˜10^7 bacteria) were transferred to a fresh 100 mL LB liquid culture (in a 250 mL Erlenmeyer flask). Liquid cultures were grown for 24 hours on a 37° C. shaker, to a density of 2.5×10^9 bacteria according to cell counts (for a total of 2.5×10^11 bacteria). This process was performed 9 times. The average number of generations a bacterium would have grown in each liquid culture is
Four biological replicates of each condition were grown. All liquid cultures, including the small founding culture, had the possible addition of 1 μL/mL ampicillin or 15 ng/mL norfloxacin. […] The fact that most of the “interrelatedness” between bacteria sampled at the end of the culture is important for the way mutation rate is calculated.
MG1655 E. coli were used as wild-type cells for all experiments. The tet-regulated mrcA strain MG1655(CmR::Ptet-mrcA SpR::tetR) was prepared according to Lutz, R.; Bujard, H. (1997) Independent and tight regulation of transcriptional units in Escherichia coli via the LacR/O and the TetR/O and AraC/I1-I2 regulatory elements. Nucleic Acids Research. 25(6):1203-10. […] PNAS 111(20):E2100-E2109, doi: 10.1073/pnas.1201876111. Mutant strains were induced with anhydrous tetracycline at 50 ng/ml. In the mutS knockout strain, MG1655 mutS was replaced with a kanamycin resistance cassette.
0. Restriction digest. a. Incubate 1 μg DNA in 50 μL 1× restriction enzyme buffer with the appropriate amount of restriction enzyme. For this study, 1 unit XmnI was used. Samples were incubated at 37° C. overnight. b. Deactivate restriction enzyme. For XmnI, samples were heated at 65° C. for 20 minutes. 1. 1 cycle PCR with adapter-barcode-primer a. Prepare 50 μL PCR reaction mix using adapter-barcode-primer and 12.5 μL of the sample above (250 ng DNA) b. PCR, 1 cycle: 98° C. 1 min, 60° C. 15 sec, 72° C. 1 min 2. Remove unused barcodes a. Immediately add 1 μL exonuclease I+5 μL buffer. b. Incubate at 37° C. for 1 hr, then 80° C. for 20 min c. Clean sample using PCR purification kit 3. Linear amplification using forward adapter amplifier primers a. Add cleaned DNA to fresh 50 μL reaction mix with forward adapter amplifier primer. b. PCR, 12 cycles: 98° C. 15 sec, 61° C. 15 sec, 72° C. 5 sec Note: The number of linear amplification cycles is limited by off-target amplification.
a. Add adapter-reverse-primer and reverse adapter amplifier primers. b. PCR, 15 cycles: 98° C. 15 sec, 61° C. 15 sec, 72° C. 5 sec 5. Purify with Ampure XP beads Optional: If using multiple samples with phased barcodes, combine DNA first in equimolar concentrations. For this study, quantification at this step was done using TapeStation. 6. Sequence. HiSeq Rapid Run, 150 bp, Paired-End.
After grouping by barcode, sequences were aligned using the forward and reverse [primer] sequences for mrcA and rpoB above. Samples were indexed according to phase. Consensus bases, including indels, are called only when all bases at a given position and barcode have 100% agreement.
Mutation rates in the assay are chosen to maximize the likelihood of recovering the mean mutant frequency for substitutions of a given type X->Y, which occur a Poisson process over a certain number of generations (in this case 113). […]

E. coli = test: Fluctuation assay of mutation rate with sub-inhibitory antibiotic doses; format: cell-based, Escherichia coli
Source text: The effect of sub-inhibitory doses of antibiotics of different classes on mutation rate was investigated using both MDS and detailed fluctuation assays as performed in Garibyan, L. et al. (2003). DNA Repair. 2(5):593-608; and Lang, G. I.; et al. (2008). Genetics 178(1):67-82.

SMILES	mutation rate in cells overexpressing catalase ([1]; MDS, catalase overexpression mutant, lower basal rate)	transversions and indel formation in mrcA ([1]; MDS, mrcA)	rate of transition mutations in rpoB ([1]; MDS)	transition rate, anaerobic conditions ([1]; cells grown in anaerobic conditions)	transition substitution rate in rpoB, fluctuation assays (E. coli)	rate of >1 bp indel formation in both mrcA and rpoB ([1]; MDS, 15 ng/mL norfloxacin)
CC1(C)S[C@@H]2[C@H](NC(=O)[C@H](N)c3ccccc3)C(=O)N2[C@H]1C(=O)O [ampicillin]	did not increase this lower rate	increased transversions and indel formation in mrcA	increase in the rate of transition mutations in rpoB	did not display an increase in transition rate	–	–
CCn1cc(C(=O)O)c(=O)c2cc(F)c(N3CCNCC3)cc21 [norfloxacin]	–	–	increased the transition substitution rate in rpoB	–	this increase was only seen in cells that were grown to stationary phase	increased the rate of >1 bp indel formation in both mrcA and rpoB
